The target in assay [1] is T1, Human Kv1.5 channels (Homo sapiens, UniProt P22460).
T1 construct: expressed in transfected cells; host or cells: Xenopus laevis oocytes injected with Kv1.5-coding RNA synthesized in vitro
Description: Inhibition of human Kv1.5 current expressed in Xenopus oocytes (two microelectrode voltage clamp). It counts as cell-based. As to conditions: human Kv1.5 expressed in Xenopus oocytes; voltage jumps to 0 mV and 40 mV, 500 ms; RT; pH 7.4; Hill equation. As for the experimental part:
Human Kv1.5 channels were expressed in Xenopus oocytes. For this purpose, oocytes were first isolated from Xenopus laevis and were defolliculated. Kv1.5-coding RNA synthesized in vitro was then injected into these oocytes. After Kv1.5 protein expression for 1-7 days, Kv1.5 currents were measured on the oocytes by the two microelectrode voltage clamp technique. Here, the Kv1.5 channels were activated as a rule with voltage jumps to 0 mV and 40 mV, lasting for 500 ms. The bath was flushed with a solution of the following composition: 96 mM NACl, 2 mM KCl, 1.8 mM CaCl2, 1 mM MgCl2, and 5 mM HEPES (tritrated with NaOH to pH 7.4). These experiments were carried out at RT. The following were used for data acquisition and analysis: Geneclamp amplifier (Axon Instruments, Foster City, USA) and MacLab D/A converter and software (ADinstruments, Castle Hill, Australia). The substances according to the invention were tested by adding them in different concentrations to the bath solution. The effects of the substances were calculated as percentage inhibition of the Kv1.5 control current obtained when no substance was added to the solution. The data were then extrapolated using the Hill equation, in order to determine the inhibitory concentration (IC50) for the respective substances.

Assay [2] concerns fast-activating potassium channel IKr. As to conditions: human ventricle and atrium cells; cited from earlier work.
For assay [3], the system named is Kv1.5 channel. As to conditions: described in the literature, side effect alongside other principal effects; cited from earlier work.

SMILES strings stand for the structures.

T1 sequence (P22460 whole entry): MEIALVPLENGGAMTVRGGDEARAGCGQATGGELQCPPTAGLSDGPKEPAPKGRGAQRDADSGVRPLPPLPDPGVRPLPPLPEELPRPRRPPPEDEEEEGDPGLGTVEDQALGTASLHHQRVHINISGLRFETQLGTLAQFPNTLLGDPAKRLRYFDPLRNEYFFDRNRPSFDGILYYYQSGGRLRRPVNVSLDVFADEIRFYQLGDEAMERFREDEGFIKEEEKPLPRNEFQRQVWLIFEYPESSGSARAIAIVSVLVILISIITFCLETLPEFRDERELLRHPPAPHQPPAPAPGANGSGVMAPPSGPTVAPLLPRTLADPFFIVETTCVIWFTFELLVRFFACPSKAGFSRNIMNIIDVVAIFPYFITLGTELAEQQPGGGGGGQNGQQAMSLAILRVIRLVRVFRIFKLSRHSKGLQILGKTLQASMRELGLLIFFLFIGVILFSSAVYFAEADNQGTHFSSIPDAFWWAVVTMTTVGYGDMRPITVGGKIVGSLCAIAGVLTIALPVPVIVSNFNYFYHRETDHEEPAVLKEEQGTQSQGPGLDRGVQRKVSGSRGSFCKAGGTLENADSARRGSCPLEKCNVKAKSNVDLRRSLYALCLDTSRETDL

The compound `CC(C)CCNS(=O)(=O)c1cc(C(=O)N[C@H]2CCc3ccccc32)c(Cl)cc1Cl` [Example 20] showed an IC50 in assay [1] of about 3 µM. On to `Cc1ccc(S(=O)(=O)NC2CCCCC2)cc1C(=O)NC1CCc2ccccc21` (centres unmarked) [Example 51], for which inhibition in assay [1] was half-maximal at 7.1 µM (IC50). The same measure, in the same setting: the result for `O=C(NC1CCc2ccccc21)c1cc(S(=O)(=O)NC2CCCCC2)c(Cl)cc1Cl` (centres unmarked) [Example 13] reads 3.9 µM. `CN(C(=O)c1cc(S(=O)(=O)NC2CCCCC2)ccc1Cl)C1CCc2ccccc21` (centres unmarked) [Example 94] gave an IC50 in assay [1] of 2.2 µM. The same measure, in the same setting: in the case of `COc1cc2c(cc1OC)C(NC(=O)c1ccc(Cl)c(S(=O)(=O)NCCC(C)C)c1)CC2` (centres unmarked) [Example 89] it was 5.6 µM.

Turning to `CN(CCOc1ccc(NS(C)(=O)=O)cc1)CCc1ccc(NS(C)(=O)=O)cc1` [Dofetilide], the “block of IKr (in words)” value in assay [2] is on record as “predominantly or exclusively block the fast-activating potassium channel IKr”. Regarding `C1CCC2(C1)C1CN(CC3CC3)CC2CN(CC2CC2)C1` [Tedisamil], the “blocking effect on the Kv1.5 channel (in words)” value (“blocking effect” for short) in assay [3] is given as “blocking effect on the Kv1.5 channel”. `O=C(NC1CCc2ccccc21)c1cc(S(=O)(=O)Nc2ccccc2)ccc1Cl` (centres unmarked) [Example 62] came in with an IC50 in assay [1] of 6.3 µM. Still for that read-out and setting: the result for `Cc1cc(S(=O)(=O)NCCC(C)C)cc(C(=O)NC2CCc3ccccc32)c1C` (centres unmarked) [Example 60] reads 6.9 µM; that for `CCCCNS(=O)(=O)c1cc(C(=O)NC2CCc3ccccc32)ccc1Cl` (centres unmarked) [Example 3], 7.7 µM; that for `NS(=O)(=O)c1cc(C(=O)NC2CCc3ccccc32)ccc1Cl` (centres unmarked) [Example 1], over 10 µM.

In assay [1], `O=C(NC1CCc2ccccc21)c1cc(S(=O)(=O)NC2CCCCC2)c(F)cc1Cl` (centres unmarked) [Example 73] registered an IC50 of 6.2 µM. In other words, the single-digit micromolar range. On the same count and under the same terms, the result for `Cc1cc(C)c(S(=O)(=O)NCCC(C)C)cc1C(=O)NC1CCc2ccccc21` (centres unmarked) [Example 57] reads 8.8 µM; that for `COc1ccc2c(c1)C(NC(=O)c1ccc(Cl)c(S(=O)(=O)NCCC(C)C)c1)CC2` (centres unmarked) [Example 88], 8.7 µM; that for `CC(C)CCNS(=O)(=O)c1cc(C(=O)N[C@@H]2CCc3ccccc32)c(Cl)cc1Cl` [Example 19], about 3 µM. On the same count and under the same terms, the result for `CC(C)CCNS(=O)(=O)c1cc(C(=O)NC2CCc3ccccc32)c(Cl)cc1Cl` (centres unmarked) [Example 11] reads 2.8 µM. On to `CCCCN1CCCCC1C(=O)Nc1c(C)cccc1C` (centres unmarked) [Bupivacaine], for which the “blocking effect” value in assay [3] was “blocking effect on the Kv1.5 channel”.

In the case of `CC(C)NC[C@@H](O)c1ccc(NS(C)(=O)=O)cc1` [d-Sotalol], in assay [2], the “block of IKr (in words)” value is “predominantly or exclusively block the fast-activating potassium channel IKr”. In assay [1], `O=C(NC1CCc2ccccc21)c1cc(S(=O)(=O)NC2CCC2)c(Cl)cc1Cl` (centres unmarked) [Example 14] returned an IC50 of 4.2 µM.

Regarding `O=C1NCCN1CCN1CCC(c2cn(-c3ccc(F)cc3)c3ccc(Cl)cc23)CC1` [Sertindole], the “blocking effect” value in assay [3] was “blocking effect on the Kv1.5 channel”. Consider `CC(C)CNS(=O)(=O)c1cc(C(=O)NC2CCc3ccccc32)c(Cl)cc1Cl` (centres unmarked) [Example 10], for which, in assay [1], half-maximal inhibition (IC50) required 4.8 µM. That is a single-digit micromolar value. As for `Cc1ccc(S(=O)(=O)NCCC(C)C)cc1C(=O)NC1CCc2ccccc21` (centres unmarked) [Example 43], half-maximal inhibition in assay [1] (IC50) required 5.3 µM. On to `COc1ccc(NS(=O)(=O)c2cc(C(=O)NC3CCc4ccccc43)c(Cl)cc2F)cc1` (centres unmarked) [Example 90], for which the IC50 in assay [1] was 2.8 µM.

One may read the IC50 as the point on the concentration scale where inhibition reaches its midpoint. The low end stands for higher potency, the high end for lower potency.

The record behind these values is patent publication US6221866A, “Indanyl-substituted benzenecarboxamides, processes for their preparation, their use as a medicament, and pharmaceutical formulations containing them” (priority 1999, dated 2001).
